Laboratory results from the NIST ThermoML archive (doi:10.1016/j.jct.2011.10.013).

How the values were obtained:
[1] = for surface tension liquid-gas: Dataphysics DCAT21 digital tensiometer; for mass density: Liquid, Vibrating tube method
[2] = xn = mol fraction of the nth substance listed; conditions: 298.15 K; for surface tension liquid-gas: Dataphysics DCAT21 digital tensiometer; for mass density: 101 kPa, Liquid, Vibrating tube method

CCCCCCCC[n+]1ccccc1.O=[N+]([O-])[O-] [1-octylpyridinium nitrate]
[1]
Conditions | surface tension liquid-gas [mN/m]
293.15 K | 36.12
298.15 K | 35.76
303.15 K | 35.5
308.15 K | 35.18
313.15 K | 34.76
318.15 K | 34.48
323.15 K | 34.12
328.15 K | 33.78

[1], 101.33 kPa
Conditions | mass density [kg/m3]
293.15 K | 1093.5
298.15 K | 1089.5
303.15 K | 1084.2
308.15 K | 1078.6
313.15 K | 1073.4
318.15 K | 1068.6
323.15 K | 1063.8
328.15 K | 1059.7

CCO [ethanol]
Conditions | surface tension liquid-gas [mN/m]
[1], 298.15 K | 21.55

Conditions | mass density [kg/m3]
[1], 298.15 K, 101 kPa | 784.8

CCCCO [butan-1-ol]
Conditions | surface tension liquid-gas [mN/m]
[1], 298.15 K | 23.67

Conditions | mass density [kg/m3]
[1], 298.15 K, 101 kPa | 805.6

CCCCCCCC[n+]1ccccc1.O=[N+]([O-])[O-] [1-octylpyridinium nitrate] + CCO
[2]
Conditions | mass density [kg/m3] | surface tension liquid-gas [mN/m]
x1 = 0.2 | 939.3 | 26.44
x1 = 0.3035 | 981.4 | 27.83
x1 = 0.4063 | 1011.5 | 28.74
x1 = 0.5087 | 1034.2 | 29.75
x1 = 0.5903 | 1048.5 | –
x1 = 0.7456 | 1069.4 | –
x1 = 0.791 | 1073.9 | –
x1 = 0.876 | 1081.5 | –
x1 = 1 | 1089.5 | –

CCCCO [butan-1-ol] + CCCCCCCC[n+]1ccccc1.O=[N+]([O-])[O-]
[2], x2 = 0
Conditions | mass density [kg/m3] | surface tension liquid-gas [mN/m]
– | 805.6 | 23.67

CCCCCCCC[n+]1ccccc1.O=[N+]([O-])[O-] [1-octylpyridinium nitrate] + CO
[2]
Conditions | mass density [kg/m3] | surface tension liquid-gas [mN/m]
x1 = 0.1026 | 910.2 | 27.4
x1 = 0.2063 | 974.3 | 30.11
x1 = 0.3072 | 1011.3 | 30.78
x1 = 0.4225 | 1038.4 | 32
x1 = 0.5067 | 1052.6 | –
x1 = 0.6067 | 1065 | –
x1 = 0.8534 | 1084.4 | –
x1 = 0.936 | 1087.5 | –
x1 = 1 | 1089.5 | –

CO [methanol]
Conditions | surface tension liquid-gas [mN/m]
[1], 298.15 K | 22.09

Conditions | mass density [kg/m3]
[1], 298.15 K, 101 kPa | 785.3

CO [methanol] + CCCCCCCC[n+]1ccccc1.O=[N+]([O-])[O-]
[2], x2 = 0
Conditions | mass density [kg/m3] | surface tension liquid-gas [mN/m]
– | 785.3 | 22.09

CCO [ethanol] + CCCCCCCC[n+]1ccccc1.O=[N+]([O-])[O-]
[2], x2 = 0
Conditions | mass density [kg/m3] | surface tension liquid-gas [mN/m]
– | 784.8 | 21.55

CCCCCCCC[n+]1ccccc1.O=[N+]([O-])[O-] [1-octylpyridinium nitrate] + CCCCO
[2]
Conditions | mass density [kg/m3] | surface tension liquid-gas [mN/m]
x1 = 0.1245 | 875.3 | 25.17
x1 = 0.2008 | 910 | 25.84
x1 = 0.3038 | 948.6 | 26.35
x1 = 0.4019 | 978.1 | 26.92
x1 = 0.5012 | 1002 | 27.53
x1 = 0.6025 | 1023 | –
x1 = 0.701 | 1041.7 | –
x1 = 0.8005 | 1059 | –
x1 = 0.899 | 1074.9 | –
x1 = 1 | 1089.5 | –
